Experimental data taken from paper PMC4430595 (European Journal of Clinical Pharmacology, 2015).
“And” between values parts separate entries of the source, which are not always exact repeats. Equal entries are not always repeated. Where two headings read alike, the source gives them in different places. One block for each compound: values may come before it.

Legend:
[1] = Study B: urinary excretion and renal clearance; conditions: mean ± SD; for CLR (renal clearance): CLR = Ae ÷ AUC; for dose excreted: human, in vivo, iv, 10 mg/kg; for Ae0–∞ (amount excreted in the urine extrapolated to infinity): normalized to a telavancin dose of 10 mg/kg
Procedure: Aliquots were collected and stored at −70 °C or lower.
The inter- and intra-assay precision and accuracy of quality controls and standards during the validation was within 7.6 % in plasma and 10.2 % in urine.
Plasma pharmacokinetic parameters were calculated as previously described [7]. The CL reported for ESRD is the CL for the subjects (i.e., includes residual clearance and any dialysis clearance).
Dialyzers used included the PSN 210 and the 2K 2.5 Dialysate (both Gambro). The dialysate flow rate was 800 mL/min, and blood flow rates in patients ranged from 300 to 500 mL/min. […] In study B, the percentage of the dose excreted in urine was calculated as Ae0–t% = Ae0–t/dose × 100 % and Ae0–∞% = Ae0–∞/dose × 100 %.

[2] = Study B: plasma pharmacokinetics after single-dose i.v. telavancin 10 mg/kg in subjects with varying renal function; conditions: for half-life / AUC(0-inf) / Cmax / clearance: both, human, in vivo, iv; for half-life / AUC(0-inf) / Cmax / clearance / increase in systemic exposure (AUC0–∞) compared with healthy subjects: 10 mg/kg; for AUC(0-inf): AUC0–∞; for Cmax: C max (maximum plasma concentration); for clearance: CL (clearance)
Procedure: Plasma pharmacokinetic parameters were calculated as previously described.

[3] = cited from earlier work
clinical = conditions: both, human, in vivo, iv, 7.5 mg/kg
From the text: (§1) Subjects included men and non-pregnant women and, in study A or B, respectively, were ≥18 years or 20–79 years of age with a body mass index of 18–36 or 18.5–34 kg/m^2. Subjects were either healthy or had mild, moderate or severe renal impairment.
(§2) Subjects were assigned to the renal impairment strata based on assessment during pre-study screening. For study A, strata assignment was based on CLcr calculated using the Cockcroft-Gault (C–G) equation [12] […] For study B, assignment was based on the estimated glomerular filtration rate (eGFR) using the Modification of Diet in Renal Disease formula [13] […] Summary statistics for Study B were also prepared using the C–G equation [12] with and without normalization to body surface area. Creatinine assays were performed at each clinical site using UV absorbance assays at 512 nm to detect the yellow–red complex formed from the reaction of creatinine and picric acid under alkaline conditions.
(§3) In subjects with end-stage renal disease (ESRD), haemodialysis was initiated 2–4 h after study drug administration (study A only). Haemodialysis sessions were 4 h in duration, and when possible, a similar type of dialyzer at a similar blood flow rate was used across haemodialysis subjects.
(§4) Blood samples (5–6 ml) were collected in sodium heparin glass tubes and stored chilled until the plasma was harvested by centrifugation and stored at approximately –70 °C or below until transferred frozen to a central laboratory for analysis. For subjects with varying degrees of renal impairment, samples were collected in study A pre-infusion, at 1, 2, 4, 6, 8, 12, 24, 36 and 48 h after the start of infusion for all groups and also at 72 and 96 h post-infusion for subjects with severe renal impairment or ESRD. In study B, samples were collected pre-infusion and at 0.5, 1, 1.5, 2, 3, 4, 6, 8, 10, 12, 16, 24, 36, 48, 60, 72, 84 and 96 h post-dose.
(§5) The method was linear over the range 0.25–100 μg/ml and the lower limit of quantification (LLQ) was 0.25 μg/ml. Dialysate samples from study A were analysed at a separate central laboratory (Covance Laboratories, Madison, WI, USA) using a similar validated LC–MS method. […] Study samples outside the calibration range were diluted and re-assayed. Dilution QC samples were included in batches where samples were diluted prior to analysis.
(§6) The CL reported for ESRD is the CL for the subjects (i.e., includes residual clearance and any dialysis clearance).

[4] = not given; remark: listed apart in the source
plasma proteins = test: Plasma protein binding by equilibrium dialysis (study A pre-infusion plasma); format: in vitro ADME, human; conditions: in vitro equilibrium dialysis; for Protein binding (%): pre-infusion plasma, telavancin 50 μg/ml spiked with 1 μg/ml [14C]telavancin, mean ± SD
Procedure: The percent of protein binding was calculated as follows: %bound=donor−receptor÷donor×100%,and%unbound=receptor÷donor×100%, where donor = plasma side concentration and receptor = buffer side concentration.

[5] = study A, ESRD
Procedure: as §3
For subjects with ESRD (study A), a sample from the inflow to the dialyzer on the arterial side was collected before dialysis and at 1, 2, 3 and 4 h after the start of dialysis; dialysate fluid samples (10 ml) were collected before and at 30-min intervals during dialysis. Plasma samples were also collected at 0, 60, 120, 180 and 240 min following the start of dialysis.
as §5
Dialyzers used included the PSN 210 and the 2K 2.5 Dialysate (both Gambro). The dialysate flow rate was 800 mL/min, and blood flow rates in patients ranged from 300 to 500 mL/min.

[6] = Study A: plasma pharmacokinetics after single-dose i.v. telavancin 7.5 mg/kg in subjects with varying renal function
From the text: as §1, §2, §3, §4, §5, §6

[7] = data on file, cited from earlier work
[8] = human, in vivo
From the text: as §1, §2, §3, §4, §5, §6

[9] = study B, single 1-h i.v. infusion telavancin 10 mg/kg, plasma, mild RI (eGFR 60 to 89 mL/min/1.73 m^2), n = 13, mean ± SD
[10] = study B, single 1-h i.v. infusion telavancin 10 mg/kg, plasma, normal renal function (eGFR ≥90 mL/min/1.73 m^2), n = 14, mean ± SD
[11] = study B, single 1-h i.v. infusion telavancin 10 mg/kg, plasma, severe RI (eGFR 15 to 29 mL/min/1.73 m^2), n = 8, mean ± SD
[12] = subjects with severe renal impairment or ESRD, stated for both studies

Compound: CCCCCCCCCCNCCN[C@@]1(C)C[C@H](O[C@H]2[C@H](Oc3c4cc5cc3Oc3ccc(cc3Cl)[C@@H](O)[C@@H](NC(=O)[C@@H](CC(C)C)NC)C(=O)N[C@@H](CC(N)=O)C(=O)N[C@H]5C(=O)N[C@H]3C(=O)N[C@H](C(=O)N[C@H](C(=O)O)c5cc(O)c(CNCP(=O)(O)O)c(O)c5-c5cc3ccc5O)[C@H](O)c3ccc(c(Cl)c3)O4)O[C@H](CO)[C@@H](O)[C@@H]2O)O[C@@H](C)[C@H]1O [telavancin]
CLR (renal clearance) ([1]; mild renal impairment): 8.8 ± 3.3 mL/h/kg
CLR (renal clearance) ([1]; moderate renal impairment): 4.7 ± 1.6 mL/h/kg
CLR (renal clearance) ([1]; normal renal function): 10.2 ± 1.8 mL/h/kg and 10.5 ± 1.9 mL/h/kg
CLR (renal clearance) ([1]; severe renal impairment): 1.8 ± 0.6 mL/h/kg and 1.9 ± 0.7 mL/h/kg
dose excreted ([1]; both, Ae0-t % (percentage of the dose excreted in urine), urine 0–96 h, mild renal impairment): 58.2 ± 11.5%
dose excreted ([1]; both, Ae0-t % (percentage of the dose excreted in urine), urine 0–96 h, moderate renal impairment): 48.4 ± 8.7%
dose excreted ([1]; both, Ae0-t % (percentage of the dose excreted in urine), urine 0–96 h, normal renal function): 62.8 ± 9%
dose excreted ([1]; both, Ae0–∞% (percentage of the dose excreted in urine, extrapolated to infinity), normal renal function): 62.7 ± 9.1%
dose excreted ([1]; Ae0–∞% (percentage of the dose excreted in urine, extrapolated to infinity), mild renal impairment): 58.2 ± 11.6%
dose excreted ([1]; Ae0–∞% (percentage of the dose excreted in urine, extrapolated to infinity), moderate renal impairment): 48.4 ± 9.3%
dose excreted ([1]; Ae0–∞% (percentage of the dose excreted in urine, extrapolated to infinity), severe renal impairment): 28.2 ± 3.9%
Ae0–∞ (amount excreted in the urine extrapolated to infinity) ([1]; mild renal impairment): 396 ± 100 mg
Ae0–∞ (amount excreted in the urine extrapolated to infinity) ([1]; moderate renal impairment): 375 ± 96 mg
Ae0–∞ (amount excreted in the urine extrapolated to infinity) ([1]; normal renal function): 435 ± 91 mg
Ae0–∞ (amount excreted in the urine extrapolated to infinity) ([1]; severe renal impairment): 208 ± 60 mg
Ae0-t % (percentage of the dose excreted in urine) ([1]; urine 0–96 h, severe renal impairment): 28.0 ± 4.3%
half-life [2]: 390 min
AUC(0-inf) [2, 9]: 606 µg·h/mL
AUC(0-inf) ([2]; study B, single 1-h i.v. infusion telavancin 10 mg/kg, plasma, moderate RI (eGFR 30 to 59 mL/min/1.73 m^2), n = 8, mean ± SD): 936 µg·h/mL
AUC(0-inf) [2, 10]: 539 µg·h/mL
AUC(0-inf) [2, 11]: 1400 µg·h/mL
Cmax ([2]; study B, single 1-h i.v. infusion telavancin 10 mg/kg, mild RI (eGFR 60 to 89 mL/min/1.73 m^2), n = 13, mean ± SD): 74.2 µg/mL
Cmax ([2]; study B, single 1-h i.v. infusion telavancin 10 mg/kg, normal renal function (eGFR ≥90 mL/min/1.73 m^2), n = 14, mean ± SD): 76.7 µg/mL
Cmax ([2]; study B, single 1-h i.v. infusion telavancin 10 mg/kg, severe RI (eGFR 15 to 29 mL/min/1.73 m^2), n = 8, mean ± SD): 83.2 µg/mL
clearance [2, 9]: 0.253 mL/min/kg
clearance [2, 10]: 0.283 mL/min/kg
clearance [2, 11]: 0.108 mL/min/kg
half-life ([2]; t ½ (terminal elimination half-life), study B, single 1-h i.v. infusion telavancin 10 mg/kg, plasma, mild RI (eGFR 60 to 89 mL/min/1.73 m^2), n = 13, mean ± SD): 468 min
half-life ([2]; t ½ (terminal elimination half-life), study B, single 1-h i.v. infusion telavancin 10 mg/kg, plasma, severe RI (eGFR 15 to 29 mL/min/1.73 m^2), n = 8, mean ± SD): 708 min
increase in systemic exposure (AUC0–∞) compared with healthy subjects ([2]; study B, mild renal impairment): 12%
increase in systemic exposure (AUC0–∞) compared with healthy subjects ([2]; study B, moderate renal impairment): 74%
increase in systemic exposure (AUC0–∞) compared with healthy subjects ([2]; study B, severe renal impairment): 160%
C max (maximum plasma concentration) ([2]; study B, single 1-h i.v. infusion telavancin 10 mg/kg, moderate RI (eGFR 30 to 59 mL/min/1.73 m^2), n = 8, mean ± SD): 78.0 ± 4.5 µg/mL
excreted intact in urine ([3]; after a single i.v. administration of 10 mg/kg): 82%
elimination half-life (t½) ([3]; healthy adult volunteers, 7.5–15 mg/kg/day i.v. infusion, averaging): ~7 h
Cmax (clinical): 70.6 ± 11.2 µg/mL
serious adverse events (stated after the study B findings, study not given): No serious adverse events were reported
subjects reporting treatment-emergent adverse events (TEAEs) (study B, all subjects, 7/43): 16.3%
subjects reporting treatment-emergent adverse events (TEAEs) (study B, mild renal impairment, 1/13): 7.7%
subjects reporting treatment-emergent adverse events (TEAEs) (study B, moderate renal impairment, 2/8): 25%
subjects reporting treatment-emergent adverse events (TEAEs) (study B, normal renal function, 0/14): 0%
subjects reporting treatment-emergent adverse events (TEAEs) (study B, severe impairment, 4/8): 50%
tolerability (study B, single i.v. infusion 10 mg/kg, normal renal function and varying degrees of renal impairment): well tolerated
subjects with ECG QT prolongation (study B, three subjects of 43 (two severe, one moderate renal impairment), mild and transient): 7.0%
subjects with increased blood lactate dehydrogenase (study B, two subjects of 43, mild and transient): 4.7%
subjects reporting treatment-emergent adverse events (TEAEs) ([4]; study A, ESRD, 2/6): 33%
subjects reporting treatment-emergent adverse events (TEAEs) ([4]; study A, all subjects, 17/29): 59%
subjects reporting treatment-emergent adverse events (TEAEs) ([4]; study A, mild renal impairment, 4/7): 57%
subjects reporting treatment-emergent adverse events (TEAEs) ([4]; study A, moderate renal impairment, 3/6): 50%
subjects reporting treatment-emergent adverse events (TEAEs) ([4]; study A, normal renal function, 5/6): 83%
subjects reporting treatment-emergent adverse events (TEAEs) ([4]; study A, severe impairment, 3/4): 75%
tolerability ([4]; study A, single i.v. infusion 7.5 mg/kg, normal renal function and varying degrees of renal impairment): well tolerated
audiology assessments ([4]; ten subjects with various degrees of renal impairment, study not given): no clinically significant abnormalities
Protein binding (%) (plasma proteins; ESRD on dialysis, n = 6): 87.6 ± 1.0/0%
Protein binding (%) (plasma proteins; mild RI (CLcr 51–80 mL/min), n = 6): 87.5 ± 1.0%
Protein binding (%) (plasma proteins; moderate RI (CLcr 30–50 mL/min), n = 6): 87.8 ± 1.1%
Protein binding (%) (plasma proteins; normal renal function (CLcr >80 mL/min), n = 6): 86.5 ± 1.3%
Protein binding (%) (plasma proteins; severe RI (CLcr <30 mL/min), n = 4): 86.7 ± 1.2%
average binding to plasma proteins (plasma proteins; study A pre-dose plasma, all renal impairment groups): approximately 87%
dialysis clearance as share of clearance in normal subjects (total body CL) [5]: approximately 25%
total administered dose removed by dialysis session ([5]; 7.5 mg/kg, 4-h haemodialysis on the day of administration, dialysate flow 800 mL/min): approximately 6%
dialysis clearance ([5]; CLHD = QD × (CTLV – DTLV) ÷ CTLV, dialysate flow 800 mL/min, estimated): 4.5 mL/min
dialysis clearance ([5]; same value in ml/h): 4.52 mL/min
clearance ([6]; both, human, in vivo, iv, 7.5 mg/kg, CL (clearance), study A, single 1-h i.v. infusion telavancin 7.5 mg/kg, plasma, ESRD, n = 6, includes residual clearance and any dialysis clearance, mean ± SD): 0.136 mL/min/kg
increase in systemic exposure (AUC0–∞) compared with healthy subjects ([6]; study A, 7.5 mg/kg, ESRD group): 79%
increase in systemic exposure (AUC0–∞) compared with healthy subjects ([6]; study A, 7.5 mg/kg, mild renal impairment): 13%
increase in systemic exposure (AUC0–∞) compared with healthy subjects ([6]; study A, 7.5 mg/kg, moderate renal impairment): 29%
increase in systemic exposure (AUC0–∞) compared with healthy subjects ([6]; study A, 7.5 mg/kg, severe renal impairment): 118%
change of t1/2 [6, 12]: almost doubled
reduction of mean plasma CL [6, 12]: more than 50%

CL (clearance) [8]: 9.8 ± 4.3/0 mL/h/kg
Compound: hydroxypropylbetadex
t½ ([7]; previously studied patients with severe renal impairment): 15.6 ± 6.0 h
t½ ([7]; subjects with normal renal function): 2.5 ± 0.84 h
